The assay deals with eNOS promoter. The assay can be described thus: Activation of eNOS transcription (eNOS promoter-luciferase reporter gene assay). The note with it: human endothelial cell line stably transfected with eNOS promoter-luciferase construct; 18 h incubation; determined graphically; read-out: EC50 values of transcription induction ratios (TIR). In kind it is cell-based. Here is the method: Activation of eNOS transcription was measured as described in detail by Li et al., “Activation of protein kinase C alpha and/or epsilon enhances transcription of the human endothelial nitric oxide synthase gene”, Mol. Pharmacol. 53 (1998) 630. Briefly, a 3.5 kB long fragment 5′ of the starting codon of the eNOS gene was cloned, sequenced and cloned in firefly luciferase expression plasmids to monitor activation of the eNOS promoter by reporter gene activity. A human endothelial cell line stable transfected and expressing this promoter-reporter construct was used for compound testing. Cells were incubated for 18 h with the compounds.
All compounds were dissolved in sterile dimethyl sulfoxide (DMSO). A final concentration of 0.5% DMSO in complete medium was allowed. Induction of reporter gene expression in these cells was measured using a standard luciferase assay system (Promega, Cat. No. E150) according to the manufacturer's instructions. Luciferase induction in cells incubated with compounds were compared to those incubated with solvent alone. The ratio of both activities (transcription induction ratio, TIR) was plotted as a function of compound concentration. […] EC50 values of transcription induction ratios as a function of compound concentration were determined graphically.
A general note: In a reporter assay the amount or activity of a reporter protein is the signal.

The structures appear in SMILES notation.

In the case of `Nc1ccc2nc(-c3ccc(F)cc3)cn2n1` [Example 7, 2-(4-Fluoro-phenyl)-imidazo[1,2-b]pyridazin-6-ylamine], the EC50 is < 500 nM. Next, `Fc1ccc(-c2cn3nc(Cl)ccc3n2)cc1` [Example 8, 6-Chloro-2-(4-fluoro-phenyl)-imidazo[1,2-b]pyridazine]: < 500 nM.

The values above are taken from patent publication US8044050B2, “Imidazo[1,2-a]azines and their use as pharmaceuticals” (Sanofi-Aventis, priority 2007, dated 2011).
